# From patent US20130251731A1, “Tau Acetylation in the Pathogenesis of Alzheimers Disease and Other Related Tauopathies” (THE TRUSTEES OF THE UNIVERSITY OF PENNSYLVANIA, priority 2012, published 2013)
# “Also recorded” adds a separate entry of the source.
# What was measured:
# [1] = test system: K18-PL acetylation in QBI-293 cells; test: Cell-based K18-PL acetylation assay in QBI-293 cells; settings: C646 to block CBP/p300, 3MA-induced acetylation, overnight
# [2] = test system: 2N4R-tau and tau-K18 auto-acetylation activity; test: Tau acetyltransferase inhibition studies (pre-incubation with cysteine blocking agents, tubulin or microtubules); assay type: biochemical; settings: pre-incubated with 0.5 mM NEM or 4 mM IA
# Procedure: FIG. 14, comprising FIGS. 14a-14c, is a series of images depicting the results of experiments showing that cysteine blocking agents inhibit tau-mediated acetyltransferase activity. […] FIG. 14c is an image showing bovine brain derived microtubule associated protein (MAP-rich) fractions containing all CNS tau isoforms that were evaluated in acetyltransferase assays in the presence of increased tubulin concentrations followed by immunoblotting with Ac-K280 and total tau (T46) antibodies.
# Acetyltransferase assays using purified tau proteins were performed as previously described and subjected to autoradiography or immunoblotting using the following anti-tau antibodies: anti-tau polyclonal (Dako, A0024, 1:10,000), anti-acetyl lysine (Cell Signaling, #9441, 1:1000), anti-tau monoclonal (T46, 1:1000), anti-mouse tau (T49, 1:1000), anti-acetylated tau (Ac-K280, 1:1000), anti-acetylated tau (Ac-K369, 1:1000). For tau acetyltransferase inhibition studies, tau proteins were pre-incubated with 0.5 mM N-ethyl-maleimide (NEM), 4 mM iodoacetamide (IA), or increasing concentrations of either tubulin (5-10 μM) or pre-formed microtubules (5 μM). […] Reaction products were readily distinguished between 2N4R-tau (Mr ˜65 kD) and tau-K18 (Mr ˜15 kD) by immunoblotting using acetylated tau (Ac-K280) and total tau (E10) antibodies. […]
# HDAC6 = HDAC6 siRNA in HEK-T40 cells, immunoblotting; assay type: cell-based, human
# Procedure: FIG. 7, comprising FIG. 7A through FIG. 7D, depicts the results of experiments which illustrate the characterization of the ac-K280 site-specific acetylated tau antibody. FIG. 7A illustrates the results of an experiment where recombinant WT-K18 or ΔK280-K18 proteins (1 μg) were incubated in the presence or absence of acetyl-CoA or CBP as indicated and K280 acetylation was determined by immunoblotting using anti-ac-K280 and a polyclonal antibody raised to exon 10 of tau protein (E10). FIG. 7B illustrates the results of an experiment where QBI-293 cells were co-transfected with WT-T40 tau or ΔK280-T40 mutant tau expression plasmids along with CBP to promote tau acetylation. 1, 2, and 5 μg total cell lysates were analyzed by western blotting using anti-ac-K280, total tau (T46), and GAPDH antibodies. […] Scale bar represents 50 μm. FIG. 7D illustrates the results of an experiment where control or HDAC6 siRNA expressing HEK-T40 cells were analyzed by immunoblotting using ac-K280, total tau, HDAC6, and GAPDH antibodies.
# The longest human tau isoform (designated Tau-T40) was cloned into pCDNA5/TO vector (Invitrogen) and site-directed mutagenesis (Quikchange kit; Stratagene) was used to create K→Q or K→R mutations at residues K163, K280, K281, K369 as indicated. Indicated plasmids were transfected into either QBI-293 cells or stably expressing HEK-T40 cells using Fugene (Roche). […]
# [3] = biological target: T1, tau-K18 acetyltransferase activity (auto-acetylation) (Homo sapiens, UniProt P10636); test: Tau auto-acetylation filter binding assay, kinetic analysis; assay type: biochemical
# T1 construct: made in house
# T1 sequence (P10636 561-689 limits assumed): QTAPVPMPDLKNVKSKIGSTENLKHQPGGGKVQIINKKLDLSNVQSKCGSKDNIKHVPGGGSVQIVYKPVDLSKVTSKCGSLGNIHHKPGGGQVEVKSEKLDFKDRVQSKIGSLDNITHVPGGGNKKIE
# Procedure: (§1) Reactions were assembled in 50 μl of reaction buffer containing 50 mM Tris pH 8.0, 100 μM EDTA, and 10% glycerol. Unless specifically noted, reactions contained 25 μM of either WT tau-K18 or tau-K18-2CA mutant. The reactions were initiated by the addition of [^3H]-acetyl-CoA (2.35 Ci mmol^−1, Perkin Elmer) at concentrations ranging from 2.5 μM to 1 mM, incubated at 37° C., and allowed to proceed for 1 hr (unless otherwise noted). Reactions were stopped by the addition of 10 μl of 3 mM CoA, and 25 μl of the reaction was then spotted to a P81 filter paper (Whatman), washed in 10 mM HEPES pH 7.5 three times, and dried using acetone. Incorporated [^3H]-acetyl-CoA was then measured using the Perkin Elmer Tri-Carb 2800TR Liquid Scintillation Analyzer, and the molar amount of acetyl groups incorporated into tau were calculated from a standard curve of the radiolabeled acetyl-CoA.
# [4] = test system: tau-K18 acetyltransferase activity (auto-acetylation); test: as above; assay type: biochemical; settings: tau-K18 proteins containing sequential deletions
# Procedure: as §1
# tubulin = test: MT assembly light-scattering assay; assay type: biochemical; settings: 30 μM tubulin, 40 μM tau proteins, 2 mM GTP
# Procedure: (§2) Recombinant full-length T40, 4R-tau MT-binding domain K18, or tau fibrils were acetylated by incubation with [^14C]-labeled acetyl-CoA in the presence or absence of CBP. FIG. 1A illustrates that the reaction products were analyzed by SDS-PAGE and Coomassie blue staining followed by overnight radiographic exposure using STORM phosphor-imager software. FIG. 1B depicts the results of an experiment where T40 or K18 proteins were incubated with acetyl-CoA and/or recombinant CBP and reaction products were subjected to immunoblot analysis using a polyclonal anti-tau-specific antibody for MT repeat domain (E10) and an anti-acetyl-lysine antibody. FIG. 1C is a graph depicting the MT assembly activities of K18 proteins as evaluated in light-scattering assays. Tubulin monomers (30 μM) were mixed with 40 μM tau proteins in MT assembly buffer supplemented with 2 mM guanosine triphosphate. MT assembly was determined by monitoring absorbance every minute at 350 nm using a SpectraMax plate reader. […] FIG. 1D is a graph illustrating the results of experiments where Tau proteins (10 μM) were evaluated in fibrillization reactions using 10 μM heparin to induce assembly. […] Samples were analysed by SDS-PAGE and Coomassie staining to monitor fibril formation. FIG. 1F illustrates the results of experiments where four-hour time points from fibrillization reactions were analysed by negative-staining EM. […]
# [5] = Heparin-induced tau fibrillization assay quantified by Thioflavin-T binding; assay type: biochemical; settings: 10 μM tau proteins, 10 μM heparin, 4-h incubation
# Procedure: as §2
# Tau K18 protein was either mock acetylated or acetylated in vitro using acetyl-CoA substrate as indicated elsewhere herein. […] Protein concentrations were determined using the bicinchoninic acid protein assay (Pierce) with bovine serum albumin as the standard. Acetylated K18 and mock-treated K18 were assessed by a light-scattering assay as described elsewhere herein. […] The extent of fibrillization was assessed at different time points by ThT fluorescence assay, sedimentation analysis and negative staining EM as described elsewhere herein. For ThT fluorescence assay, ThT diluted in 100 mM glycine buffer (pH 8.5) was added and fluorometric readings were taken at 450 nm (excitation) and 510 nm (emission). […]
molecule,measurement,setting,value
CC1=NN(c2ccc(C(=O)O)cc2)C(=O)/C1=C\c1ccc(-c2cc(C)c(C)cc2[N+](=O)[O-])o1 [C646],K18-PL acetylation levels,[1],no effect on K18-PL acetylation levels
CCN1C(=O)C=CC1=O [N-ethyl-maleimide],2N4R-tau or tau-K18 auto-acetylation activity after pretreatment,[2],abrogation of 2N4R-tau or tau-K18 auto-acetylation activity; also recorded: minimal acetyltransferase activity
NC(=O)CI [iodoacetamide],2N4R-tau or tau-K18 auto-acetylation activity after pretreatment,[2],abrogation of 2N4R-tau or tau-K18 auto-acetylation activity; also recorded: minimal acetyltransferase activity
"HDAC6 small interfering RNA: HDAC6 siRNA (Invitrogen) 5′-AAAGUUGGAACUCUCACGGUGCAGC-3′ (SEQ ID NO: 1) (listed as RNA, chemistry not given here)",levels of ac-K280,HDAC6,increased levels of ac-K280
tau-K18: recombinant tau fragment encompassing all four MT-binding repeats,Kcat [auto],"[3]; auto-acetylation, this study",8.3e-05 s⁻¹
same,Km,"[3]; auto-acetylation, this study, read-out: Km AcCoA [auto]",147 µM
same,turnover rate Kcat,[3]; saturation plot against acetyl-CoA concentration,8.3e-05 s⁻¹
same,Km,[4],147 µM
same,MT assembly (absorbance at 350 nm),tubulin,promoted tubulin assembly into MTs
same,fibrillization (ThT),[5],did not fibrillize during the 4-h incubation period
